Values quoted from earlier work as cited in PubChem BioAssay AID1259409 (Chemical Carcinogenesis Research Information System (CCRIS), 2018).

System: rodent chemically induced tumor inhibition, incidence and multiplicity
Experiment: CCRIS tumor inhibitor studies
Conditions: Route [Inhibitor]: ORAL, Promoter: NONE USED

CC1=C(/C=C/C(C)=C/C=C/C(C)=C\C(=O)O)C(C)(C)CCC1
tumour outcome (control, treated, inhibition, significance) (Carcinogen: N-(4-(5-NITRO-2-FURYL)-2-THIAZOLYL)FORMAMIDE, 24554-26-5, Dose [Inhibitor]: 120 MG/KG DIET DAILY STARTING 1 WK AFTER COMPLETION OF CARCINOGEN TREATMENT AND CONTINUING UNTIL END OF STUDY (STUDY DUR, Species: RAT, Strain/Sex: F344/FEMALE, Target Tissue: Type of Lesion: URINARY BLADDER: PAPILLOMA, Dose [Carcinogen]: 2 G/KG DIET DAILY FOR 10 WK): 10/100 (10%), 12/100 (12%), -20%, p 0.655 | tumour outcome (control, treated, inhibition, significance) (Carcinogen: N-(4-(5-NITRO-2-FURYL)-2-THIAZOLYL)FORMAMIDE, 24554-26-5, Dose [Inhibitor]: 240 MG/KG DIET DAILY STARTING 1 WK AFTER COMPLETION OF CARCINOGEN TREATMENT AND CONTINUING UNTIL END OF STUDY (STUDY DUR, Species: RAT, Strain/Sex: F344/FEMALE, Target Tissue: Type of Lesion: URINARY BLADDER: CARCINOMA, Dose [Carcinogen]: 2 G/KG DIET DAILY FOR 10 WK): 36/100 (36%), 47/100 (47%), -31%, p 0.024 | tumour outcome (control, treated, inhibition, significance) (Carcinogen: N-(4-(5-NITRO-2-FURYL)-2-THIAZOLYL)FORMAMIDE, 24554-26-5, Dose [Inhibitor]: 240 MG/KG DIET DAILY STARTING 1 WK AFTER COMPLETION OF CARCINOGEN TREATMENT AND CONTINUING UNTIL END OF STUDY (STUDY DUR, Species: RAT, Strain/Sex: F344/FEMALE, Target Tissue: Type of Lesion: URINARY BLADDER: PAPILLOMA, Dose [Carcinogen]: 2 G/KG DIET DAILY FOR 10 WK): 10/100 (10%), 7/100 (7%), 30%, p 0.446 | tumour outcome (control, treated, inhibition, significance) (Carcinogen: N-BUTYL-N-(4-HYDROXYBUTYL)NITROSAMINE, 3817-11-6, Dose [Inhibitor]: 0.8 MMOL/KG DIET DAILY FOR 19 WK STARTING 7 D AFTER FINAL CARCINOGEN DOSE (STUDY DURATION: 6 MO), Species: RAT, Strain/Sex: F344/FEMALE, Target Tissue: Type of Lesion: URINARY BLADDER: TRANSITIONAL CELL CARCINOMA, Dose [Carcinogen]: 150 MG 2/WK FOR 6 WK): 28/80 (35%), 7/40 (18%), 49%, p<0.05 | tumour outcome (control, treated, inhibition, significance) (Carcinogen: N-BUTYL-N-(4-HYDROXYBUTYL)NITROSAMINE, 3817-11-6, Dose [Inhibitor]: 0.8 MMOL/KG DIET DAILY FOR 19 WK STARTING 7 D AFTER FINAL CARCINOGEN DOSE (STUDY DURATION: 6 MO), Species: RAT, Strain/Sex: F344/MALE, Target Tissue: Type of Lesion: URINARY BLADDER: TRANSITIONAL CELL CARCINOMA, Dose [Carcinogen]: 200 MG 2/WK FOR 8 WK): 55/60 (92%), 24/30 (80%), 13%, not significant | tumour outcome (control, treated, inhibition, significance) (Carcinogen: N-BUTYL-N-(4-HYDROXYBUTYL)NITROSAMINE, 3817-11-6, Dose [Inhibitor]: 150 MG/G DIET DAILY STARTING 7 D AFTER THE LAST CARCINOGEN DOSE AND CONTINUING THROUGH THE END OF THE STUDY (STUDY DURAT, Species: MOUSE, Strain/Sex: B6D2F1/FEMALE, MALE, Target Tissue: Type of Lesion: URINARY BLADDER: TRANSITIONAL CELL CARCINOMA, Dose [Carcinogen]: 10 MG 2/WK FOR 9 WK): 23/54 (43%), 19/55 (35%), 19%, not significant | tumour outcome (control, treated, inhibition, significance) (Carcinogen: N-BUTYL-N-(4-HYDROXYBUTYL)NITROSAMINE, 3817-11-6, Dose [Inhibitor]: 150 MG/KG DIET DAILY STARTING 7 D AFTER THE LAST CARCINOGEN DOSE AND CONTINUING THROUGH THE END OF THE STUDY (STUDY DURA, Species: MOUSE, Strain/Sex: B6D2F1/FEMALE, MALE, Target Tissue: Type of Lesion: URINARY BLADDER: TRANSITIONAL CELL CARCINOMA, Dose [Carcinogen]: 5 MG 2/WK FOR 9 WK): 29/71 (41%), 19/69 (28%), 32%, not significant | tumour outcome (control, treated, inhibition, significance) (Carcinogen: N-BUTYL-N-(4-HYDROXYBUTYL)NITROSAMINE, 3817-11-6, Dose [Inhibitor]: 200 MG/G DIET DAILY STARTING 7 D AFTER THE LAST CARCINOGEN DOSE AND CONTINUING THROUGH THE END OF THE STUDY (STUDY DURAT, Species: MOUSE, Strain/Sex: B6D2F1/FEMALE, MALE, Target Tissue: Type of Lesion: URINARY BLADDER: TRANSITIONAL CELL CARCINOMA, Dose [Carcinogen]: 5 MG 2/WK FOR 9 WK): 29/71 (41%), 17/71 (24%), 41%, p<0.05 | tumour outcome (control, treated, inhibition, significance) (Carcinogen: N-BUTYL-N-(4-HYDROXYBUTYL)NITROSAMINE, 3817-11-6, Dose [Inhibitor]: 200 MG/G DIET DAILY STARTING 7 D AFTER THE LAST CARCINOGEN DOSE AND CONTINUING THROUGH THE END OF THE STUDY (STUDY DURAT, Species: MOUSE, Strain/Sex: B6D2F1/FEMALE, MALE, Target Tissue: Type of Lesion: URINARY BLADDER: TRANSITIONAL CELL CARCINOMA, Dose [Carcinogen]: 10 MG 2/WK FOR 9 WK): 23/54 (43%), 12/54 (22%), 49%, p<0.05 | tumour outcome (control, treated, inhibition, significance) (Carcinogen: N-BUTYL-N-(4-HYDROXYBUTYL)NITROSAMINE, 3817-11-6, Dose [Inhibitor]: 200 MG/KG DIET DAILY STARTING 7 D AFTER LAST CARCINOGEN DOSE AND CONTINUING THROUGH THE END OF STUDY (STUDY DURATION: 6, Species: MOUSE, Strain/Sex: C57BL/MALE, Target Tissue: Type of Lesion: URINARY BLADDER: NEOPLASM, Dose [Carcinogen]: 7.5 MG 2/WK FOR 6 WK): 9/24 (38%), 1/19 (5%), 87%, p<0.05
